The values below come from PMC3769273, “The Relationship between Functional Inhibition and Binding for KCa2 Channel Blockers” (PLoS ONE, 2013).

The target of assay [1] is T1, KCa2.2 (Rattus norvegicus, UniProt P70604).
T1 construct: expressed in transfected cells; host or cells: HEK 293 cells, transient transfection (Lipofectamine 2000) with channel plasmid plus a separate GFP plasmid; Some experiments used stably transfected cells
Put plainly: Competition binding: inhibition of 125I-apamin binding to HEK 293 cells expressing KCa2.2. Conditions: for Ki: KCa2.2, Cheng-Prussoff correction, read-out: K i for displacement of mono-iodoapamin. The protocol: (§1) Radio-ligand binding studies were conducted using HEK 293 cell lines stably expressing KCa2.2 or KCa2.3. The cells were cultured in DMEM supplemented with 10% foetal calf serum, 2 mM L-glutamine, penicillin (200 units ml^–1) and streptomycin (100 µg ml^–1) in T500 flasks (Nunc). When confluent, these cells were harvested mechanically (to avoid the use of trypsin) into Ca^2+/Mg^2+ free HBSS. The cells were centrifuged at 50 g for 2 min, resuspended in DMEM at a density of approximately 2.5×10^6 cells ml^–1 and stored at 4°C until used (<2 hr). Cell density was estimated using a haemocytometer.
(§2) Routinely, incubations were performed in a total volume of 250 µl comprising 100 µl cell suspension (∼250000 cells), 100 µl ^125I-apamin and 50 µl displacing agent or incubation medium. The incubation medium contained (in mM) NaCl 140, KCl 5, MgCl2 1, CaCl2 2, glucose 10 and HEPES 10. The pH was adjusted to 7.4 with 1 M NaOH. Non-specific binding was estimated in the presence of 100 nM UCL 1848, a potent KCa2 channel blocker which causes maximal inhibition at this concentration (see Hosseini et al., Benton et al.[13]). Measurements for each test were performed in triplicate. Separation of cells from unbound ligand was achieved by rapid filtration through Whatman GF/B filters pre-treated with 0.3% v/v polyethyleneimine using a Skatron AS harvester. The quantity of labelled apamin bound was measured using a calibrated γ counter (LKB 1275) and expressed as fmol label/10^6 cells. All binding experiments were conducted at room temperature (20–25°C).
(§3) The ability of test compounds to inhibit ^125I-apamin binding was measured in the presence of 20–60 pM ^125I-apamin with or without the test compound. In every experiment each concentration of inhibitor was tested in triplicate and the data presented represents the mean of at least two separate experiments. Inhibition curves were fitted by a variant of Hill-Langmuir equation: [drawing 3] where B I is the specific binding of label in the presence of inhibitor as a percentage of the binding in its absence. Estimates of K i were obtained using the Cheng-Prussoff correction taking estimates of K L from the saturation binding studies.

In assay [2] the target is T1, KCa2.2. Put plainly: cell-based. The format is cell-based. The settings on record: for IC50: KCa2.2, standard physiological solution, measured at −20 mV, read-out: IC50 for inhibition of KCa2 current; for common Hill slope of concentration-inhibition curves: KCa2.2 current, standard solution. The procedure: For electrophysiology, wild type and stably transfected HEK cells were plated in 35 mm dishes. In most experiments KCa2.2 was transiently expressed in HEK 293 cells. Transient transfection was achieved using Lipofectamine 2000 (Invitrogen) according to the manufacturer's instructions. Briefly, 2 µg channel plasmid and 1 µg QBI (QBiogene), which expresses GFP, was mixed with 3 µg Lipofectamine 2000 and added to each 35 mm dish. GFP expressing cells were identified by epi-fluorescence. Conventional whole cell recordings were made using an EPC9 amplifier controlled by Pulse software (Heka). Data were filtered at 1 kHz and acquired at 5 kHz. Borosilicate glass patch pipettes (2–5 MΩ) were coated with Sylgard resin, fire polished and filled with a solution containing (in mM): KCl 140, HEPES 10, K2HEDTA 5, and either 1.2 CaCl2 (free Ca^2+ = 1 µM) or no added Ca^2+ (free Ca^2+ <10 nM). The pH was adjusted to 7.2 with 1 M KOH. Free Ca^2+ concentrations were calculated using the REACT program (G.L. Smith, University of Glasgow) and stability constants for HEDTA published in Martell and Smith. Except where stated the extracellular solution was the same as the incubation medium used in binding experiments. As with binding studies all experiments were performed at room temperature (20–25°C).
Routinely, cells were held at −80 mV and 100 ms test pulses applied to potentials between −120 mV and 40 mV. […] In order to avoid contamination of KCa2 current by the endogenous currents, inhibition by blocking agents was measured at −20 mV.
Concentration-inhibition curves were fitted by a variant of the Hill equation with the form: [drawing 4] where y is the current in the presence of blocker at concentration [B] expressed as a percentage of control and n is the Hill coefficient.

Assay [3] has as its target T2, KCa2.3 (Rattus norvegicus, UniProt P70605).
T2 construct: expressed in transfected cells; host or cells: HEK 293 cell line stably expressing KCa2.3, made in house by zeocin selection
Put plainly: Competition binding: inhibition of 125I-apamin binding to HEK 293 cells expressing KCa2.3. The settings on record: for Ki: KCa2.3, Cheng-Prussoff correction, read-out: K i for displacement of mono-iodoapamin. The protocol:
as §1, §2, §3

Assay [4] concerns KCa2.3. Conditions: KCa2.3, CHO cells, ref Hosseini et al. 2000; read-out: IC50 for inhibition of KCa2 current; cited from earlier work.

A word on the IC50: it is the concentration at which inhibition is half-maximal.

T1 sequence (P70604 whole entry): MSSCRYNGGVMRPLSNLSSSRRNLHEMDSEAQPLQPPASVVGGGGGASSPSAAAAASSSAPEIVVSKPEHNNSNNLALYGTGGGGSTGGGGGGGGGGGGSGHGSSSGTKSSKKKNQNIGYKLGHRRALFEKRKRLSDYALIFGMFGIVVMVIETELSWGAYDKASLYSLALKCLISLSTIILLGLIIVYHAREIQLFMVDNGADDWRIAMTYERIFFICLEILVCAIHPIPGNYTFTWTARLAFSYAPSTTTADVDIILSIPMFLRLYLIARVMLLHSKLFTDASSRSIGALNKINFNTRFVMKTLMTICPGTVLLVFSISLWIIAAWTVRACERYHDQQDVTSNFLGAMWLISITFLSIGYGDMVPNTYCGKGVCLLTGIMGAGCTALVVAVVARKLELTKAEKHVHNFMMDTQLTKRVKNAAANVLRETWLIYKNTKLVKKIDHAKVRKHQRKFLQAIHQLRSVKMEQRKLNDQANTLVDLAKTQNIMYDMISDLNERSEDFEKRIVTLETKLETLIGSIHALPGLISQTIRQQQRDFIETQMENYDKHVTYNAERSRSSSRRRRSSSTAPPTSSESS
T2 sequence (P70605 whole entry): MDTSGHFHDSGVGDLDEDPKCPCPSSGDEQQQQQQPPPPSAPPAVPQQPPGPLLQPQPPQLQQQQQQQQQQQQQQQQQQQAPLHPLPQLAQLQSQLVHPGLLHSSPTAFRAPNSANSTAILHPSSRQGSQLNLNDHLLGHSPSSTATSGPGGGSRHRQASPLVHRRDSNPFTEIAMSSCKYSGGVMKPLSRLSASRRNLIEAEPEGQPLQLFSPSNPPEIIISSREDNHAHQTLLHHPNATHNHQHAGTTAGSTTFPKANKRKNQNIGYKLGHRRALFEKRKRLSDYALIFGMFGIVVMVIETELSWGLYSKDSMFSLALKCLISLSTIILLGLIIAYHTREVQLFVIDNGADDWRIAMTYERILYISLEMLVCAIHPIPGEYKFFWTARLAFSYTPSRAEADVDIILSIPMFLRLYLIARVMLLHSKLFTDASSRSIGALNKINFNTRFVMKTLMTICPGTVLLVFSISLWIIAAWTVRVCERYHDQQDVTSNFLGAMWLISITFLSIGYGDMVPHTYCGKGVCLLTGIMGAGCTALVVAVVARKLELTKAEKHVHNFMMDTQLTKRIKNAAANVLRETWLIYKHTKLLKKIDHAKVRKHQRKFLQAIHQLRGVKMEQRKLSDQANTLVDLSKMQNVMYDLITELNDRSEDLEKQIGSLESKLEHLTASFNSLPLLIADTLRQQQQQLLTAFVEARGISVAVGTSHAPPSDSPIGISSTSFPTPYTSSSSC

For “8,14-diaza-1,7(1, 4)-diquinolinacyclotetradecaphane [UCL 1848]”, the “inhibition of total 125I-apamin binding” value is reported as “almost completely inhibited” in assay [1] (100 nM UCL 1848, 30 pM 125I-apamin, KCa2.2 expressing HEK 293 cells) and “almost completely inhibited” in assay [3] (100 nM UCL 1848, 30 pM 125I-apamin, KCa2.3 expressing HEK 293 cells). In addition, the figures for the Ki in assay [1] and in assay [3] were 0.095 ± 0.0017 nM and 0.652 ± 0.18 nM, respectively. The IC50 in assay [2] is 0.125 ± 0.0025 nM; in assay [4], 2.1 ± 0.3 nM. Further, the “common Hill slope of concentration-inhibition curves” value in assay [2] came out at 0.7±0.04.
On to `Cc1cc(N)c2ccccc2[n+]1CCCCCCCCCC[n+]1c(C)cc(N)c2ccccc21` [Dequalinium, dequalinium], for which the Ki was 977 ± 165 nM in assay [1] and 865 ± 160 nM in assay [3]. Besides, the results for the half-inhibitory concentration (IC50) in assay [2] and in assay [4] were 420 ± 99 nM and 920 ± 140 nM, respectively. Besides, the “common Hill slope of concentration-inhibition curves” value in assay [2] is recorded as 0.7±0.04.
Turning to `CC[N+](CC)(CC)CCOc1cccc(OCC[N+](CC)(CC)CC)c1OCC[N+](CC)(CC)CC` [Gallamine, gallamine], the Ki stood at 26000 ± 5000 nM in assay [1] and 71000 ± 8000 nM in assay [3]. Also, the values for the concentration for half-maximal inhibition (IC50) in assay [2] and in assay [4] were 7000 ± 800 nM and 98000 ± 700 nM, respectively. In addition, the “common Hill slope of concentration-inhibition curves” value in assay [2] amounted to 0.7±0.04.
For the compound `c1cc2cc(c1)C[n+]1ccc(c3ccccc31)NCc1ccc(cc1)CNc1cc[n+](c3ccccc13)C2` [UCL1684, 6,10–diaza-3(1,3),8(1,4)-dibenzena-1,5(1,4)- diquinolinacyclodecaphane], the Ki in assay [1] is 1.01 ± 0.022 nM; in assay [3] it was 7.7 ± 1.6 nM. Further, the half-maximal inhibitory concentration (IC50) in assay [2] is 0.53 ± 0.008 nM; in assay [4], 5.8 ± 0.3 nM. In assay [2], the “common Hill slope of concentration-inhibition curves” value came to 0.7±0.04.
